Results: patent US20250313563A1, “GLYCOGEN SYNTHASE KINASE 3 INHIBITORS AND USES THEREOF” (The Broad Institute, Inc., priority 2022, published 2025)
Read-outs that look alike come from different tables or passages of the source.

Experiments:
[1] = target: GSK3α (GST-full length GSK3α) (Homo sapiens (Human), UniProt P49840); test: GSK3α TR-FRET kinase assay; format: biochemical
Outline: (§1)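 Compound preincubated 30 min, then 1 nM GST-full-length GSK3α or GSK3b run 100 min at ambient temperature with 200 nM biotinylated, S645-prephosphorylated glycogen synthase 631-650 peptide in Tris pH 7.5, MgCl2, DTT, BSA, 1% DMSO. ATP 4 μM (α) or 2 μM (β), or 1 mM. EDTA-quenched; Tb-anti-pSer641/streptavidin-d2 TR-FRET 665/615 ratio gave IC50.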

[2] = target: GSK3b (GST-full length GSK3b) (Homo sapiens (Human), UniProt P49841); test: GSK3b TR-FRET kinase assay; format: biochemical
Chain of GSK3b (GST-full length GSK3b) (P49841 whole entry): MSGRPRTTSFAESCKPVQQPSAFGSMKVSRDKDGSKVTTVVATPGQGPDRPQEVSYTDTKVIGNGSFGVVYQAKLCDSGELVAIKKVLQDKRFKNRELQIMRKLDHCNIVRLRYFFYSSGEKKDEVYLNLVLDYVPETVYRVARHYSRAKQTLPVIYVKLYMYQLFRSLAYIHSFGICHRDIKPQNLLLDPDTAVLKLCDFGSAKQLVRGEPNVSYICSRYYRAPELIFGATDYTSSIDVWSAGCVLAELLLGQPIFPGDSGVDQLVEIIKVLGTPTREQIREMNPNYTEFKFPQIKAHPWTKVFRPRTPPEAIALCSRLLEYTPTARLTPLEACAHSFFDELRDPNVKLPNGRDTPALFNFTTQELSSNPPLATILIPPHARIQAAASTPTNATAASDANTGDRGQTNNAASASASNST
Outline: as §1

[3] = 1 nM GSK3α, 4 μM ATP, 30 minute preincubation, Table 16, read-out: GSK3-A TR-FRET BIOCHEMICAL (TR-FRET)
[4] = 1 nM GSK3b, 2 μM ATP, 30 minute preincubation, Table 16, read-out: GSK3-B TR-FRET BIOCHEMICAL (TR-FRET)
[5] = 1 nM GSK3α, 4 μM ATP, 30 minute preincubation, read-out: GSK3-A TR-FRET BIOCHEMICAL (TR-FRET), IC50
[6] = read-out: GSK3-A (TR-FRET 1 mM ATP), GMean, IC50, 1 mM ATP, geometric mean
[7] = 1 nM GSK3b, 2 μM ATP, 30 minute preincubation, read-out: GSK3-B TR-FRET BIOCHEMICAL (TR-FRET), IC50
[8] = read-out: GSK3-B (TR-FRET 1 mM ATP), GMean, IC50, 1 mM ATP, geometric mean
[9] = 1 nM GSK3α, 4 μM ATP, 30 minute preincubation, Table 16, read-out: GSK3-A TR-FRET BIOCHEMICAL (TR-FRET), IC50
[10] = 1 nM GSK3b, 2 μM ATP, 30 minute preincubation, Table 16, read-out: GSK3-B TR-FRET BIOCHEMICAL (TR-FRET), IC50

Chain of GSK3α (GST-full length GSK3α) (P49840 whole entry): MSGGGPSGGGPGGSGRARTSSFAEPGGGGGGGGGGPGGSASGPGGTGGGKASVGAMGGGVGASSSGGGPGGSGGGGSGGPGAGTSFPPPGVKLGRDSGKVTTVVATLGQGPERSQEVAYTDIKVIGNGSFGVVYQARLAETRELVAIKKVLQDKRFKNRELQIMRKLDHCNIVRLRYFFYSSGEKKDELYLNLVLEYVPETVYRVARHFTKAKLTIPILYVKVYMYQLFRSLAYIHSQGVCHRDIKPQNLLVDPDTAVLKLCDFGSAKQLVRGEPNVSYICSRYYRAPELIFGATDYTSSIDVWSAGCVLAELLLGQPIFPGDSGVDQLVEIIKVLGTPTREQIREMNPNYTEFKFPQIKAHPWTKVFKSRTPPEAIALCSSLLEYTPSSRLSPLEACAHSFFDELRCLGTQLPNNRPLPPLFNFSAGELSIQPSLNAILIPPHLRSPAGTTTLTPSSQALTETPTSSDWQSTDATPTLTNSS

IC50 [1, 3] [nM] | IC50 [2, 4] [nM] | IC50 [1, 9] [nM] | IC50 [2, 10] [nM] | SMILES | other results
≤ 100 | 100 to 1000 |  |  | CC[C@@]1(c2cccc(C(F)(F)F)c2)C2=C(Nc3n[nH]cc31)C(C)(C)NC2=O [Compound 913451] | 
 |  |  |  | CC[C@@]1(c2cccc(C(F)(F)F)c2)C2=C(CC3(CCC3)NC2=O)Nc2n[nH]cc21 [Compound 914308] | IC50 [1, 5]: ≤ 100 nM; IC50 [1, 6]: 100 to 1000 nM; IC50 [2, 7]: ≤ 100 nM; IC50 [2, 8]: 1000 to 5000 nM
 |  |  |  | CCC1(c2cccc(-c3ccnc(C)c3)c2)C2=C(CC(C)(C)NC2=O)Nc2n[nH]cc21 (stereo not shown) [Compound 914930] | IC50 [1, 5]: ≤ 100 nM; IC50 [2, 7]: 1000 to 5000 nM
 |  |  |  | CCC1(c2cccc(-c3ccnn3C)c2)C2=C(CC(C)(C)NC2=O)Nc2n[nH]cc21 (stereo not shown) [Compound 914971] | IC50 [1, 5]: ≤ 100 nM; IC50 [2, 7]: 100 to 1000 nM
 |  | ≤ 100 | ≤ 100 | CC[C@@]1(c2cccc(N(C)c3cnccn3)c2)C2=C(CC(C)(C)CC2=O)Nc2n[nH]cc21 [Compound 915316] | 
 |  | 100 to 1000 | 1000 to 5000 | CC[C@]1(c2cccc(N(C)c3cnccn3)c2)C2=C(CC(C)(C)CC2=O)Nc2n[nH]cc21 [Compound 915340] | 
 |  | ≤ 100 | ≤ 100 | CC[C@@]1(c2cccc(N(C)c3cncnc3)c2)C2=C(CC(C)(C)CC2=O)Nc2n[nH]cc21 [Compound 915400] | 
 |  | 100 to 1000 | 1000 to 5000 | CC[C@]1(c2cccc(N(C)c3cncnc3)c2)C2=C(CC(C)(C)NC2=O)Nc2n[nH]cc21 [Compound 915401] | 
 |  | ≤ 100 | ≤ 100 | CCC1(c2cccc(N3CCCc4ncccc43)c2)C2=C(CC(C)(C)CC2=O)Nc2n[nH]cc21 (stereo not shown) [Compound 917076] | 
 |  | 100 to 1000 | 1000 to 5000 | CCC1(c2cccc(N3CCCc4ncccc43)c2)C2=C(CC(C)(C)CC2=O)Nc2n[nH]cc21 (stereo not shown) [Compound 917079] | 
≤ 100 | ≤ 100 |  |  | CC1(C)CC(=O)C2=C(C1)Nc1n[nH]cc1C21CC(c2ccccc2)C1 (stereo not shown) [Compound 917081] | 
≤ 100 | ≤ 100 |  |  | CC1(C)CC(=O)C2=C(C1)Nc1n[nH]cc1C21CC(c2ccccc2)C1 (stereo not shown) [Compound 917082] | 
 |  |  |  | CCC1(c2cccc(N(c3cccnc3)C(C)C)c2)C2=C(CC(C)(C)CC2=O)Nc2n[nH]cc21 (stereo not shown) [Compound 917086] | IC50 [1, 6]: 100 to 1000 nM; IC50 [2, 8]: 1000 to 5000 nM
 |  | 100 to 1000 | 1000 to 5000 | CC[C@]1(c2cccc(N(c3cccnc3)C(C)C)c2)C2=C(CC(C)(C)CC2=O)Nc2n[nH]cc21 [Compound 917087] | 
 |  | ≤ 100 | ≤ 100 | CCN(c1cccnc1)c1cccc(C2(CC)C3=C(CC(C)(C)CC3=O)Nc3n[nH]cc32)c1 (stereo not shown) [Compound 917088] | IC50 [1, 6]: 100 to 1000 nM; IC50 [2, 8]: 1000 to 5000 nM
 |  | 100 to 1000 | 1000 to 5000 | CCN(c1cccnc1)c1cccc(C2(CC)C3=C(CC(C)(C)CC3=O)Nc3n[nH]cc32)c1 (stereo not shown) [Compound 917089] | 
 |  |  |  | CC1(C)CC(=O)C2=C(C1)Nc1n[nH]cc1[C@]21COC2(CCC2)C1 [Compound 917128] | IC50 [1, 5]: 100 to 1000 nM; IC50 [2, 7]: 100 to 1000 nM
 |  |  |  | CC1(C)CC(=O)C2=C(C1)Nc1n[nH]cc1[C@@]21COC2(CCC2)C1 [Compound 917129] | IC50 [1, 5]: 100 to 1000 nM; IC50 [2, 7]: 100 to 1000 nM
 |  | ≤ 100 | ≤ 100 | CCCS(=O)(=O)c1cccc(C2(CC)C3=C(CC(C)(C)CC3=O)Nc3n[nH]cc32)c1 (stereo not shown) [Compound 917131] | 
≤ 100 | ≤ 100 |  |  | CC1(C)CC2=C(C(=O)C1F)[C@]1(CC[C@H](C(F)(F)F)CC1)c1c[nH]nc1N2 (stereo partly shown) [Compound 917133] | 
≤ 100 | 100 to 1000 |  |  | CC1(C)CC2=C(C(=O)C1F)[C@]1(CC[C@@H](C(F)(F)F)CC1)c1c[nH]nc1N2 (stereo partly shown) [Compound 917134] | 
≤ 100 | 100 to 1000 |  |  | CC1(C)CC(=O)C2=C(Nc3n[nH]cc3[C@]23CC[C@@H](C(F)(F)F)CC3)C1F (stereo partly shown) [Compound 917135] | 
≤ 100 | 100 to 1000 |  |  | CC1(C)CC(=O)C2=C(Nc3n[nH]cc3[C@]23CC[C@H](C(F)(F)F)CC3)C1F (stereo partly shown) [Compound 917136] | 
≤ 100 | ≤ 100 |  |  | CC1(C)CC(=O)C2=C(C1)Nc1n[nH]cc1C21CCCN(S(=O)(=O)C2CC2)CC1 (stereo not shown) [Compound 917137] | 
≤ 100 | ≤ 100 |  |  | Cn1ccc(S(=O)(=O)N2CCCC3(CC2)C2=C(CC(C)(C)CC2=O)Nc2n[nH]cc23)n1 (stereo not shown) [Compound 917138] | 
≤ 100 | ≤ 100 |  |  | CC1(C)CC(=O)C2=C(C1)Nc1n[nH]cc1C21CN(S(=O)(=O)C2CCCC2)C1 [Compound 917139] | IC50 ([1]; GSK3-A (TR-FRET 1 mM ATP), GMean, IC50, 1 mM ATP, geometric mean): 100 to 1000 nM; IC50 ([2]; GSK3-B (TR-FRET 1 mM ATP), GMean, IC50, 1 mM ATP, geometric mean): 100 to 1000 nM
